Data from patent US12276654B2, “Chemical probe-dependent evaluation of protein activity and uses thereof” (The University of Chicago, priority 2017, dated 2025).
pIC50: −log10 of the molar value.

How the values were obtained:
[1] = target: T1, NCEH1 (Mus musculus, UniProt Q8BLF1); assay: sADPL in vivo target engagement in mPBMCs after oral gavage, NCEH1; details: mice
T1 construct: Then the mPBMCs were acquired from the mouse blood and subjected to family wide probe treatment; from tissue; host or cells: mouse blood PBMCs (mPBMCs)
T1 sequence (Q8BLF1 1-408): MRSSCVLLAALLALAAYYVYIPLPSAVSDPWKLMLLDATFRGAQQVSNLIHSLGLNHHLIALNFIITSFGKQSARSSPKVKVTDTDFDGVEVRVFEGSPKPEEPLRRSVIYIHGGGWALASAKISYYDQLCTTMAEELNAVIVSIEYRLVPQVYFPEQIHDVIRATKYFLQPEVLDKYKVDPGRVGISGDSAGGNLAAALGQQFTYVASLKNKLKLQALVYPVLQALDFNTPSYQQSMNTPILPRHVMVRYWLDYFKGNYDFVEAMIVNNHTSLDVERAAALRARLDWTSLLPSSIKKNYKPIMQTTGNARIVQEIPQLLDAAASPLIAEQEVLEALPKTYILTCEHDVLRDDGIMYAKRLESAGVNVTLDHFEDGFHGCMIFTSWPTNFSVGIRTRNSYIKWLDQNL
Text: FIG. 25. In vivo Target Engagement. The mice were administrated with vehicle (PEG300) or NCEH1 inhibitor JW480 by oral gavage. Then the mPBMCs were acquired from the mouse blood and subjected to family wide probe treatment to profile the in vivo target engagement.
Following the in vitro study, in vivo target engagement was planned. In this experiment, the inventors orally gavaged the mice with vehicle or inhibitors, then collected the mPBMCs for probe treatment and sADPL measurement. Again, first the activity of NCEH1 was tested in mice PBMCs, and good activity was found. The delta Ct is over 7 cycles, which is over 100 fold change.

[2] = target: T2, NCEH1 (Homo sapiens, UniProt Q6PIU2); assay: sADPL in situ target engagement in cancer cells, NCEH1; assay type: cell-based; set-up: endogenous NCEH1 activity in SKOV3 cells; endogenous in cells; host or cells: SKOV3; wild-type PC3; PAFAH2-expressing PC3; details: inhibitor prior to family-wide probe
T2 sequence (Q6PIU2 1-408): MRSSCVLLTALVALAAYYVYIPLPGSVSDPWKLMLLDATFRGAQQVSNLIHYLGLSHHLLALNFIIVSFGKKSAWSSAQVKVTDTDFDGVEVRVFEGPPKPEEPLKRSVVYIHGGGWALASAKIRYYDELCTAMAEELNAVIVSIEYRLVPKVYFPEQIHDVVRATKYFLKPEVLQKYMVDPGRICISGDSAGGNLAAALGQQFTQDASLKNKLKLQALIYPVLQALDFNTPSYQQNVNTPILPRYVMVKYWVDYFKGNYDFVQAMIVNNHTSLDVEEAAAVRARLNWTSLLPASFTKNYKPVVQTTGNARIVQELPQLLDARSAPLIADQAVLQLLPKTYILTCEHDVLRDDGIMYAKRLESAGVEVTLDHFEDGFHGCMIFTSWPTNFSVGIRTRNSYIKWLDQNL
Protocol: FIG. 23. In situ Target Engagement. Cancer cells were treated with DMSO as the control, with inhibitor prior to family wide probe to pre-block the active site, or with family-wide probe directly. Then sADPL workflow was applied to read out the CT difference. Serine hydrolase NCEH1 and its specific inhibitor JW480, or FAAH and inhibitor PF3845 were applied. The activity fold change was transformed from CT value with PCR amplification factor 1.91 determined by a standard qPCR curve and the activities were normalized to DMSO control at different cell lysate concentrations. […] To quantitatively measure the target engagement, different dose of JW480 was applied to either its target NCEH1, or off-target MGLL.
As another alternative detection method, sADPL is complementary with gel-based and MS-based detection methods. In this design, the inventors treat the live cell with several family-wide probes. The probes will label all the members of the protein families. Then one could get the labeled proteome after the cell lysis. […]
A summary of this assay is provided below: • 1. […] In the oligo design, the orthogonal forward primers were employed for different antibody to enable the multiplexing real time PCR readout. […]
Two amine modified oligos were conjugated to antibody and streptavidin, respectively. […] A Taqman probe was designed for real time PCR quantification. […]

Question: For `CC(C)c1ccccc1OC(=O)NCCc1ccc2ccccc2c1` [JW480], which “NCEH1 activity in mPBMCs (raw Ct values)” value ([1]; 3 mg/kg (partial inhibition) vs vehicle PEG300) is on record?
Answer: lower activity

Question: And the “NCEH1 activity in mPBMCs (raw Ct values)” value ([1]; 80 mg/kg (complete inhibition) vs vehicle PEG300)?
Answer: even lower activity

Question: And the pIC50 ([2]; cancer cells treated in situ, read-out: apparent IC50, dose-dependent inhibition of NCEH1 by sADPL)?
Answer: 7.75

Question: What about the “NCEH1 activity in inhibitor competition group by sADPL, normalized to DMSO control” value ([2]; cancer cells) of the same compound?
Answer: bring the activities down to the levels of DMSO controls
